Experimental data as given in patent US12077503B2, “Substituted cyclic amides and their use as herbicides” (FMC CORPORATION, priority 2015, dated 2024).

Experiments:
Experiment in all cases: Test C preemergence
Type in all cases: in vivo
[1] = test system: waterhemp (common waterhemp, Amaranthus rudis); details: for Plant response rating, Waterhemp: scale 0 to 100, 0 no effect, 100 complete control
Method in brief: (§1)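 Seeds in loam-sand soil treated preemergence, or plants in peat-based medium sprayed postemergence at 2–18 cm (1- to 4-leaf stage), with compound in a non-phytotoxic solvent mixture containing surfactant. Greenhouse-held 13–15 d, then visually rated against controls on a 0–100 scale (0 = no effect, 100 = complete control); dash = not tested.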

[2] = test system: nutsedge, yellow (yellow nutsedge, Cyperus esculentus); details: for Plant response rating, Nutsedge, Yellow: scale 0 to 100, 0 no effect, 100 complete control
Method in brief: as §1

[3] = test system: pigweed (Amaranthus retroflexus); details: for Plant response rating, Pigweed: scale 0 to 100, 0 no effect, 100 complete control
Method in brief: as §1

[4] = test system: blackgrass (Alopecurus myosuroides); details: for Plant response rating, Blackgrass: scale 0 to 100, 0 no effect, 100 complete control
Method in brief: as §1

[5] = test system: oilseed rape (Brassica napus); details: for Plant response rating, Oilseed Rape: scale 0 to 100, 0 no effect, 100 complete control
Method in brief: as §1

[6] = test system: barnyardgrass (Echinochloa crus-galli); details: for Plant response rating, Barnyardgrass: scale 0 to 100, 0 no effect, 100 complete control
Method in brief: as §1

corn (Zea mays) = details: for Plant response rating, Corn: scale 0 to 100, 0 no effect, 100 complete control
Method in brief: as §1

[7] = test system: velvetleaf (Abutilon theophrasti); details: for Plant response rating, Velvetleaf: scale 0 to 100, 0 no effect, 100 complete control
Method in brief: as §1

[8] = test system: Galium (catchweed bedstraw, Galium aparine); details: for Plant response rating, Galium: scale 0 to 100, 0 no effect, 100 complete control
Method in brief: as §1

[9] = test system: ryegrass, Italian (Italian ryegrass, Lolium multiflorum); details: for Plant response rating, Ryegrass, Italian: scale 0 to 100, 0 no effect, 100 complete control
Method in brief: as §1

soybean (Glycine max) = details: for Plant response rating, Soybean: scale 0 to 100, 0 no effect, 100 complete control
Method in brief: as §1

[10] = test system: johnsongrass (Sorghum halepense); details: for Plant response rating, Johnsongrass: scale 0 to 100, 0 no effect, 100 complete control
Method in brief: as §1

[11] = test system: ragweed (common ragweed, Ambrosia elatior); details: for Plant response rating, Ragweed: scale 0 to 100, 0 no effect, 100 complete control
Method in brief: as §1

[12] = test system: wheat (winter wheat, Triticum aestivum); details: for Plant response rating, Wheat: scale 0 to 100, 0 no effect, 100 complete control
Method in brief: as §1

[13] = test system: morningglory (Ipomoea coccinea); details: for Plant response rating, Morningglory: scale 0 to 100, 0 no effect, 100 complete control
Method in brief: as §1

[14] = test system: foxtail, giant (giant foxtail, Setaria faberii); details: for Plant response rating, Foxtail, Giant: scale 0 to 100, 0 no effect, 100 complete control
Method in brief: as §1

[15] = test system: crabgrass, large (large crabgrass, Digitaria sanguinalis); details: for Plant response rating, Crabgrass, Large: scale 0 to 100, 0 no effect, 100 complete control
Method in brief: as §1

[16] = 31 g ai/ha, 0 is no effect, 100 is complete control

Structure (SMILES): CN1CC(c2cccc(OC(F)F)c2)C(C(=O)Nc2cccc(F)c2F)C1=O (centres unmarked) [Compound 616]
- Plant response rating (scale of 0 to 100), Waterhemp [1, 16]: 50
- Plant response rating, Waterhemp ([1]; 62 g ai/ha): 80
- Plant response rating, Waterhemp ([1]; 125 g ai/ha): 85
- Plant response rating, Waterhemp ([1]; 250 g ai/ha): 85
- Plant response rating (scale of 0 to 100), Nutsedge, Yellow [2, 16]: 0
- Plant response rating, Nutsedge, Yellow ([2]; 62 g ai/ha): 0
- Plant response rating, Nutsedge, Yellow ([2]; 125 g ai/ha): 0
- Plant response rating, Nutsedge, Yellow ([2]; 250 g ai/ha): 0
- Plant response rating (scale of 0 to 100), Pigweed [3, 16]: 75
- Plant response rating, Pigweed ([3]; 62 g ai/ha): 80
- Plant response rating, Pigweed ([3]; 125 g ai/ha): 80
- Plant response rating, Pigweed ([3]; 250 g ai/ha): 80
- Plant response rating (scale of 0 to 100), Blackgrass [4, 16]: 30
- Plant response rating, Blackgrass ([4]; 62 g ai/ha): 45
- Plant response rating, Blackgrass ([4]; 125 g ai/ha): 80
- Plant response rating, Blackgrass ([4]; 250 g ai/ha): 80
- Plant response rating (scale of 0 to 100), Oilseed Rape [5, 16]: 60
- Plant response rating, Oilseed Rape ([5]; 62 g ai/ha): 60
- Plant response rating, Oilseed Rape ([5]; 125 g ai/ha): 70
- Plant response rating, Oilseed Rape ([5]; 250 g ai/ha): 85
- Plant response rating (scale of 0 to 100), Barnyardgrass [6, 16]: 90
- Plant response rating, Barnyardgrass ([6]; 62 g ai/ha): 90
- Plant response rating, Barnyardgrass ([6]; 125 g ai/ha): 95
- Plant response rating, Barnyardgrass ([6]; 250 g ai/ha): 95
- Plant response rating (scale of 0 to 100), Corn (corn (Zea mays); [16]): 55
- Plant response rating, Corn (corn (Zea mays); 62 g ai/ha): 65
- Plant response rating, Corn (corn (Zea mays); 125 g ai/ha): 80
- Plant response rating, Corn (corn (Zea mays); 250 g ai/ha): 85
- Plant response rating (scale of 0 to 100), Velvetleaf [7, 16]: 0
- Plant response rating, Velvetleaf ([7]; 62 g ai/ha): 10
- Plant response rating, Velvetleaf ([7]; 125 g ai/ha): 40
- Plant response rating, Velvetleaf ([7]; 250 g ai/ha): 35
- Plant response rating (scale of 0 to 100), Galium [8, 16]: 90
- Plant response rating, Galium ([8]; 62 g ai/ha): 85
- Plant response rating, Galium ([8]; 125 g ai/ha): 85
- Plant response rating, Galium ([8]; 250 g ai/ha): 90
- Plant response rating (scale of 0 to 100), Ryegrass, Italian [9, 16]: 30
- Plant response rating, Ryegrass, Italian ([9]; 62 g ai/ha): 35
- Plant response rating, Ryegrass, Italian ([9]; 125 g ai/ha): 90
- Plant response rating, Ryegrass, Italian ([9]; 250 g ai/ha): 85
- Plant response rating (scale of 0 to 100), Soybean (soybean (Glycine max); [16]): 0
- Plant response rating, Soybean (soybean (Glycine max); 62 g ai/ha): 0
- Plant response rating, Soybean (soybean (Glycine max); 125 g ai/ha): 0
- Plant response rating, Soybean (soybean (Glycine max); 250 g ai/ha): 15
- Plant response rating (scale of 0 to 100), Johnsongrass [10, 16]: 60
- Plant response rating, Johnsongrass ([10]; 62 g ai/ha): 85
- Plant response rating, Johnsongrass ([10]; 125 g ai/ha): 75
- Plant response rating, Johnsongrass ([10]; 250 g ai/ha): 90
- Plant response rating (scale of 0 to 100), Ragweed [11, 16]: 25
- Plant response rating, Ragweed ([11]; 62 g ai/ha): 25
- Plant response rating, Ragweed ([11]; 125 g ai/ha): 50
- Plant response rating, Ragweed ([11]; 250 g ai/ha): 75
- Plant response rating (scale of 0 to 100), Wheat [12, 16]: 0
- Plant response rating, Wheat ([12]; 62 g ai/ha): 10
- Plant response rating, Wheat ([12]; 125 g ai/ha): 50
- Plant response rating, Wheat ([12]; 250 g ai/ha): 85
- Plant response rating (scale of 0 to 100), Morningglory [13, 16]: 0
- Plant response rating, Morningglory ([13]; 62 g ai/ha): 0
- Plant response rating, Morningglory ([13]; 125 g ai/ha): 10
- Plant response rating, Morningglory ([13]; 250 g ai/ha): 10
- Plant response rating (scale of 0 to 100), Foxtail, Giant [14, 16]: 90
- Plant response rating, Foxtail, Giant ([14]; 62 g ai/ha): 90
- Plant response rating, Foxtail, Giant ([14]; 125 g ai/ha): 90
- Plant response rating, Foxtail, Giant ([14]; 250 g ai/ha): 95
- Plant response rating (scale of 0 to 100), Crabgrass, Large [15, 16]: 90
- Plant response rating, Crabgrass, Large ([15]; 62 g ai/ha): 90
- Plant response rating, Crabgrass, Large ([15]; 125 g ai/ha): 95
- Plant response rating, Crabgrass, Large ([15]; 250 g ai/ha): 95
